Earlier results, collected in article PMC12737490, “Beta Toxins Isolated from the Scorpion Centruroides hirsutipalpus (Scorpiones; Buthidae) Affect the Function of Sodium Channels of Mammals” (Toxins, 2025).

What was measured:
hNav1.6 channel = conditions: ref [13]; cited from earlier work
Text: When comparing the sequence of the new toxins β-NaScTxs from C. hirsutipalpus with sequences from different scorpions (Figure 3A) using BLASTp version 2.11.0, it is shown that the sequence of the toxin Chirp7 is 100% identical to the sodium toxin Ct1a (UniProt accession P18926) from the C. tecomanus scorpion.

sodium channel = conditions: stated as reported earlier; no reference in the sentence; cited from earlier work
Nav1.5 = conditions: ref [34]; cited from earlier work
Text: (§1) The Chirp9 peptide in the venom of C. hirsutipalpus has an abundance of 2.8%. It has an experimental mass of 7790.1 Da and a theoretical mass of 7790.9 Da. The sequence of Chirp9 (Figure 3B) shares 97% identity with the Cl13 toxin from the C. limpidus scorpion (UniProt C0HK69) and differs by only two amino acid substitutions: L5I and Q54A. These substitutions could modulate the toxic properties of the venom through structural alterations in the peptide that influence its interaction with target sites, possibly leading to increased potency or stability. The Cl13 toxin is found in C. limpidus ve ...

Nav1.4 = conditions: ref [34]; cited from earlier work
Text: as §1

Nav1.2 = conditions: ref [34]; cited from earlier work
Text: as §1

Nav1.6 = conditions: ref [34]; cited from earlier work
Text: as §1

| Substance | effect on hNav1.6 channel (hNav1.6 channel) | effect on sodium channel inactivation kinetics (sodium channel) | effect on sodium currents (Nav1.5) | effect on sodium currents (Nav1.4) | effect on sodium currents (Nav1.2) | effect on sodium currents (Nav1.6) |
| --- | --- | --- | --- | --- | --- | --- |
| Ct1a: sodium toxin Ct1a from the C. tecomanus scorpion, sequence 100% identical to Chirp7 | altering channel activation by lowering the action potential and decreasing the current amplitude | – | – | – | – | – |
| Cl13: beta toxin from the C. limpidus scorpion, 97% identity with Chirp9 | – | slow down the kinetics of sodium channel inactivation | modifies sodium currents | modifies sodium currents | modifies sodium currents | modifies sodium currents |
